In US20040253665A1, “Novel peptide-producing enzyme, microbe producing the enzyme and method for dipeptide synthesis using them” (AJINOMOTO CO., INC., priority 2002, published 2004):
Non-standard residues stand in square brackets, D forms with d. Residues, ends and D or L forms follow the SMILES beside them. *: point of attachment. 2Nal = N[C@@H](Cc1ccc2ccccc2c1)C(=O)O; Cha = N[C@@H](CC1CCCCC1)C(=O)O; Boc = CC(C)(C)OC(=O)*

Columns and labels:
[1] = tested on: peptide-producing enzyme (Mono S fraction) from Empedobacter brevis strain FERM BP-8113; assay: Enzyme inhibitors: effect on production of L-alanyl-L-glutamine; format: biochemical; settings: for Inhibition of the enzyme (in words): serine enzyme inhibitors at 10 mM
[2] = tested on: peptide-producing enzyme (Mono S fraction) from Empedobacter brevis strain FERM BP-8113; assay: Enzyme substrate specificity (1)-(10), (13), (14); format: biochemical; set-up: key: +: those for which production was confirmed but which were unable to be quantified due to the absence of a standard; a trace amount
Description: Ester specificity was examined in the case of using L-amino acid ester for the carboxy component. […] The amounts of L-Ala-L-Gln produced in this reaction are shown in Table 4 (HCl represents hydrochloride in Table 4). Peptide production was examined in the case of using L-alanine methyl ester for the carboxy component and using various L-amino acids for the amine component. […] (The “+” mark indicates those peptides for which production was confirmed but which were unable to be quantified due to the absence of a standard, while “tr” indicates a trace amount.) Peptide production was examined in the case of using various types of L-amino acid methyl esters for the carboxy component and using L-glutamine for the amine component. […] Peptide production was examined in the case of using various L-amino acid methyl esters for the carboxy component and various L-amino acids for the amine component. […] (The “tr” indicates a trace amount.) Furthermore, Tween-80 was added to the reaction system to a final concentration of 0.1% in the case of using L-Trp-OMe. (The “+” mark indicates those peptides for which production was confirmed but which were unable to be quantified due to the absence of a standard.) […] (The “tr” indicates a trace amount.) Peptide production was examined using various L-amino acid amides for the carboxy component, and various L-amino acids for the amine component. […] Peptide production was examined in the case of using various L-alanine methyl esters for the carboxy component and C-protected L-amino acids for the amine component. […] Peptide production was examined in the case of using various amino acid methyl esters for the carboxy component and methylamine for the amine component. […] Peptide production was examined in the case of using β-amino acid ester for the carboxy component or β-amino acid for the amine component. […] (The “tr” indicates a trace amount.) Oligopeptide production was examined in the case of using L-amino acid ester for the carboxy component and peptide for the amine component. […] Substrate specificity was additionally assessed using the same enzyme fraction as that used in Example 5. […] (A “+” mark indicates those for which production was confirmed but which were unable to be quantified due to the absence of a standard, while “tr” indicates a trace amount). Substrate specificity with respect to oligopeptide production was assessed using the same enzyme fraction as Example 26. […] (A “+” mark indicates those for which production was confirmed but which were unable to be quantified due to the absence of a standard, while “tr” indicates a trace amount). It should be noted that hydrochlorides were used for all of the carboxy components.

[3] = tested on: peptide-producing enzyme (Mono S fraction) from Empedobacter brevis strain FERM BP-8113; assay: Production of L-alanyl-L-glutamine from L-alanine methyl ester and L-glutamine with enzyme fraction; format: biochemical; settings: for L-Ala-L-Gln: L-alanine methyl ester hydrochloride 100 mM, 18° C., 2 hours
Protocol: On the other hand, there was hardly any production of L-Ala-L-Gln observed in an enzyme-non-added lot, and the […] was only about 0.07 mM after reacting for 120 minutes.

[4] = tested on: enzyme (SP-Sepharose HP fraction) derived from Sphingobacterium sp. strain FERM BP-8124; format: biochemical; settings: pH 9.0, 25° C.
Procedure, shortened: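 Purified enzyme (SP-Sepharose HP fraction, 0.33 units) reacted with carboxy components (100 mM, as hydrochlorides) and amine components (150 mM) in 100 mM borate buffer pH 9.0 with 10 mM EDTA. Reactions ran 1.5 h at 25 °C to assess peptide and oligopeptide formation.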

[5] = tested on: Empedobacter brevis strain FERM BP-8113 microbial cells; assay: Production of peptide using microbial cells of Empedobacter brevis; format: cell-based; settings: microbial cell suspension 100 g/L mixed 1:1 with 200 mM carboxy component and 400 mM amino acid, pH 9.0, 10 mM EDTA, 18° C., 2 hours
Protocol: A 50 mL medium (pH 6.2) containing 5 grams (hereinafter, “g”) of glucose, 5 g of ammonium sulfate, 1 g of monopotassium phosphate, 3 g of dipotassium phosphate, 0.5 g of magnesium sulfate, 10 g of yeast extract and 10 g of peptone in 1 liter (hereinafter, “L”) was transferred to a 500 mL Sakaguchi flask and sterilized at 115° C. for 15 minutes. This medium,was then inoculated with one loopful of the culture broth of Empedobacter brevis strain FERM BP-8113 (Depositary institution: National Institute for Advanced Industrial Science and Technology, International Patent Organism Depositary, Address of depositary institution: Chuo Dai-6, 1-1 Higashi 1-Chome, Tsukuba-shi, Ibaraki-ken, Japan, International deposit transfer date: Jul. 8, 2002) that had been cultured at 30° C. for 16 hours in the same medium, followed by shake culturing at 30° C. for 16 hours and 120 strokes/min.

[6] = tested on: peptide-producing enzyme (Mono S fraction) from Empedobacter brevis strain FERM BP-8113; assay: Enzyme substrate specificity (1)-(10), (13), (14); format: biochemical; settings: pH 9.0, 25° C., 3 hours
Procedure, shortened: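 Mono S-purified peptide-forming enzyme from Empedobacter brevis FERM BP-8113, given L-amino acid esters (hydrochlorides) or amides as carboxy component with amino acids, C-protected amino acids, methylamine, β-amino acids or peptides as amine component. Dipeptide/oligopeptide product quantified; Tween-80 0.1% added with L-Trp-OMe.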

[7] = inhibitor at 10 mM, pH 9.0, 25° C., 5 minutes, 100 = absence of enzyme inhibitor
[8] = oligopeptide production, amount of enzyme 0.2 units, pH 9.0, 25° C., 3 hours

Molecule: O=C(O)CN(CCN(CC(=O)O)CC(=O)O)CC(=O)O [EDTA, ethylenediaminetetraacetic acid]
- Relative activity of L-Ala-L-Gln production (%) [1, 7]: 96%

Molecule: C[C@H](N)C(=O)N[C@@H](Cc1ccc2ccccc2c1)C(=O)O [H-Ala-2-Nal-OH] (H-Ala-[2Nal]-OH)
- Produced peptide (mM) ([2]; carboxy component 20 mM, amine component 20 mM, 0.1 unit enzyme, 25° C., reaction time 3 hr): +

Molecule: N[C@@H](CC1CCCCC1)C(=O)N[C@@H](Cc1ccccc1)C(=O)O [H-CHA-Phe-OH] (H-[Cha]-Phe-OH)
- Produced peptide (mM) ([2]; carboxy component 40 mM, amine component 40 mM, 0.1 unit enzyme, 25° C., reaction time 3 hr): +

Molecule: CC(C)(C)OC(=O)NCCCC[C@H](N)C(=O)N[C@@H](CCC(N)=O)C(=O)O [H-Lys(Boc)-Gln-OH] (H-Lys(Boc)-Gln-OH)
- Produced peptide (mM) ([2]; carboxy component 100 mM, amine component 150 mM, 0.1 unit enzyme, 25° C., reaction time 2 hr): +

Molecule: C[C@H](N)C(=O)N[C@@H](CCC(N)=O)C(=O)O [L-Ala-L-Gln, L-alanyl-L-glutamine] (H-Ala-Gln-OH)
- L-alanyl-L-glutamine produced ([3]; 3 μl enzyme fraction, 100 mM L-alanine methyl ester hydrochloride, 200 mM L-glutamine, pH 9.0, 18° C., enzyme-added lot (FIG. 3)): 83 mM
- L-Ala-L-Gln ([3]; L-glutamine 100 mM): 68.2 mM
- L-Ala-L-Gln ([3]; L-glutamine 110 mM): 72.1 mM
- L-Ala-L-Gln ([3]; L-glutamine 120 mM): 73.3 mM
- L-Ala-L-Gln ([3]; L-glutamine 130 mM): 75.1 mM
- L-Ala-L-Gln ([3]; L-glutamine 150 mM): 75.5 mM
- L-Ala-L-Gln ([3]; L-glutamine 200 mM): 82.0 mM
- L-alanyl-L-glutamine produced ([4]; 10 μl SP-Sepharose HP fraction (about 27 U/ml) in 90 μl with 111 mM L-alanine methyl ester hydrochloride, 222 mM L-glutamine, 120 minutes, enzyme-added lot): 73 mM
- Produced peptide ([4]; Table 15-4, amides or methylamine as components, 100 mM / 150 mM, 0.33 units enzyme, 1.5 hours): 0.3 mM
- Produced peptide [5]: 68.0 mM
- Produced peptide ([6]; 100 mM L-alanine methyl ester hydrochloride, L-amino acid 150 mM): 79.3 mM
- Produced peptide ([6]; L-amino acid amide hydrochloride 100 mM as carboxy component, L-amino acid 150 mM): 7.6 mM
- Produced peptide ([6]; L-amino acid methyl ester hydrochloride 100 mM, 150 mM L-glutamine): 74.6 mM

Molecule: O=C(O)CI [Monoiodoacetate]
- Relative activity of L-Ala-L-Gln production (%) ([1]; pH 9): 101%

Molecule: CCN1C(=O)C=CC1=O [N-Ethyl maleimide]
- Relative activity of L-Ala-L-Gln production (%) [1, 7]: 110%

Molecule: O=S(=O)(F)Cc1ccccc1 [Phenylmethylsulfonyl fluoride]
- Relative activity of L-Ala-L-Gln production (%) [1, 7]: 115%
- Inhibition of the enzyme (in words) [1]: not inhibited

Molecule: c1cnc2c(c1)ccc1cccnc12 [o-Phenanthroline]
- Relative activity of L-Ala-L-Gln production (%) [1, 7]: 96%

Molecule: N=C(N)Nc1ccc(C(=O)Oc2ccc([N+](=O)[O-])cc2)cc1 [p-Nitrophenyl-p′-guanidino benzoate, p-nitrophenyl-p′-guanidinobenzoate]
- Relative activity of L-Ala-L-Gln production (%) [1, 7]: 0.1%
- Inhibition of the enzyme (in words) [1]: inhibited

Molecule: L-Ala-Gly-Gly-L-Phe-L-Met
- Produced peptide (mM) [2, 8]: +

Molecule: L-Ala-Gly-L-Phe
- Produced peptide (mM) ([2]; oligopeptide production, amount of enzyme 0.1 units, pH 9.0, 25° C., 3 hours): +

Molecule: L-Ala-L-Ala-L-Gln
- concentration of by-product ([3]; 3 μl enzyme fraction, 100 mM L-alanine methyl ester hydrochloride, 200 mM L-glutamine, pH 9.0, 18° C., enzyme-added lot): 1.3 mM
- Produced peptide ([6]; L-amino acid ester 100 mM, amino acid or peptide amine component 150 mM): 15.2 mM

Molecule: L-Ala-L-Phe-L-Met
- Produced peptide (mM) [2, 8]: +
